Read-outs that look alike come from different tables or passages of the source.
Tested on: 3rd instar cabbage looper
Test: cabbage leaf disc dip bioassay, mortality of cabbage looper
Assay type: in vivo
Experimental: An enzyme preparation, designated A, comprising an enzyme having lipase activity was diluted to 10% of the original concentration. 1 mL of the enzyme was added to 9 mL of phosphate buffered saline (PBS). The diluted enzyme was desalted using a desalting column from Sigma Aldrich. Each column having the capacity to desalt 2.5 mL of enzyme, 4 columns for the enzyme were used. Each column was equilibrated with 25 mL of PBS. 2.5 mL of sample was loaded into the column, the flow thru was discarded. 3.5 mL of PBS was added to elute the desalted enzyme. This flow thru was collected for use in the bioassay. 4.95 mL of the desalted enzyme was added to 99 mL PBS.
The chlorpyrifos insecticide (Sigma 45395) was prepared based on a stock solution of 10× (113 mg/L) using acetone. The insecticide was then diluted further using acetone to a 1:6 ratio.
Approximately 0.3 g of super absorbent granules were placed into 1.25 ounce cups and 6 mL of deionized water was added to hydrate the granules. Discs of green cabbage (2.8 cm) were cut with plastic tubing after the outer leaves had been removed. One disc was used for each individual insect. After cutting, leaf discs were rinsed in deionized water and spin dried in a small salad spinner to remove excess water.
Liquid treatments were poured into either 50 mL glass beakers for the insecticide or medium weigh boats for aqueous treatments and cabbage leaf discs were dipped in the treatment with disposable forceps, tilted to allow excess liquid to run off, and placed into cups with hydrated granules at an angle.
The cabbage leaf discs were dipped in either acetone (enzyme alone treatment) or chlorpyrifos at 18.83 mg/L of acetone. These were set to dry for 1 hr. The cabbage discs were then dipped either in phosphate buffer (chlorpyrifos alone treatments) or Enzyme A (enzyme alone or in combination with chlorpyrifos treatment), along with a 0.03% surfactant supplement.
After the cabbage discs had dried for 1 hr, a single 3rd instar cabbage looper was added to each individual cabbage disc in its cup and a paperboard lid was snapped into place. A total of 20 insects were evaluated for each treatment.
Experiment 2: This experiment was performed similar to Experiment 1, except the chemical insecticide was Clothianidin at 1:2, and the enzyme preparation, designated B, comprises an enzyme having glucosidase activity.
Experiment 3: This experiment was performed similar to Experiment 2, except the enzyme preparations, designated C and D, respectively, each comprises a different enzyme having protease activity.

Structure (SMILES) | LT50 (95% confidence intervals) in days (Experiment 1, estimated time to kill 50% of the insects, Probit analysis, chlorpyrifos 18.83 mg/L, Enzyme A 0.05%, 20 insects per treatment) | mortality at 18.83 µg/mL (Trichoplusia ni, foliar, 168 h, read-out: % Mortality (7DAT), Experiment 1, Abbott's corrected, 7 days after treatment, chlorpyrifos 18.83 mg/L, Enzyme A 0.05%) [%] | LT50 (95% confidence intervals) in days (Experiment 2, Probit analysis, clothianidin 30 mg/L) | LT50 (95% confidence intervals) (Experiment 3, Probit analysis, clothianidin 30 mg/L) [days] | mortality (Trichoplusia ni, foliar, 120 h, Experiment 3, Abbott's corrected, 5 days after treatment, clothianidin 30 mg/L, read-out: % Mortality (5DAT)) [%] | mortality at 30 µg/mL (Trichoplusia ni, foliar, 144 h, Experiment 2, Abbott's corrected, 6 days after treatment, clothianidin 30 mg/L, read-out: % Mortality (6DAT)) [%] | mortality (Trichoplusia ni, foliar, 144 h, Experiment 3, Abbott's corrected, 6 days after treatment, clothianidin 30 mg/L, read-out: % Mortality (6DAT)) [%] | mortality (Trichoplusia ni, foliar, 168 h, Experiment 3, Abbott's corrected, 7 days after treatment, clothianidin 30 mg/L, read-out: % Mortality (7DAT)) [%] | mortality (Trichoplusia ni, foliar, 336 h, Experiment 3, Abbott's corrected, 14 days after treatment, clothianidin 30 mg/L, read-out: % Mortality (14DAT)) [%] | mortality (Trichoplusia ni, foliar, Experiment 3, Abbott's corrected, 8-11 days after treatment, clothianidin 30 mg/L, read-out: % Mortality (8-11DAT)) [%] | mortality (Trichoplusia ni, foliar, Experiment 3, Abbott's corrected, 12-13 days after treatment, clothianidin 30 mg/L, read-out: % Mortality (12-13DAT)) [%]
CCOP(=S)(OCC)Oc1nc(Cl)c(Cl)cc1Cl [Chlorpyrifos, chlorpyrifos] | 11.11 (9.90-12.48) days | 11 | – | – | – | – | – | – | – | – | –
CN/C(=N\[N+](=O)[O-])NCc1cnc(Cl)s1 [Clothianidin] | – | – | 19.37 (16.23-23.38) days | 12.34 | 15 | 0 | 20 | 30 | 45 | 40 | 45

— US20250287955A1, “METHODS OF […] PLANT FROM INSECT PESTS” (NOVONESIS PLANT BIOSOLUTIONS A/S, priority 2018, published 2025)
